Experimental findings from US9029337B2, “Modulation of factor 7 expression” (Isis Pharmaceuticals, Inc., priority 2007, dated 2015) are described below.

Strand notation (5' to 3'): a small letter for the sugar, then the base; units joined by * are phosphorothioate-linked, units joined directly phosphodiester-linked; [ ] holds rarer units or linkages, { } end groups; capitals alone tell only the bases. e = 2'-O-(2-methoxyethyl) (MOE); [5mC] = 5-methylcytosine; d = 2'-deoxy (DNA)

The first series relates to human Factor 7 mRNA. Nature of the series: Antisense inhibition of human Factor 7 mRNA in HepB3 cells, 50 nM antisense oligonucleotide, lipofectin. Type of series: cell-based. The conditions noted are these: Table 1, 50 nM, lipofectin, approximately 24 hours, relative to untreated control cells. The procedure, abridged: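 HepB3 cells were transfected by lipofectin with 50 nM antisense oligonucleotide and harvested after about 24 h. Factor 7 mRNA was measured by real-time RT-PCR (primer probe set RTS 2927 in some runs), normalized to RIBOGREEN total RNA, and reported as percent inhibition versus untreated control.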
Regarding “407906 (antisense eA*e[5mC]*e[5mC]*eA*e[5mC]*dG*dG*dG*d[5mC]*dT*dG*dG*dT*dG*d[5mC]*eA*eG*eG*e[5mC]*eG) [compound 407906]”, the “% Inhibition” value was 4%. For “407653 (antisense eA*eA*eT*eA*eT*d[5mC]*dA*dT*dT*dG*dA*d[5mC]*dA*dA*dG*eG*eG*e[5mC]*eT*eG) [compound 407653]”, the “% Inhibition” value turned out to be 21%. On the same count and under the same terms, the same measure for “407951 (antisense eA*eA*e[5mC]*eA*eG*d[5mC]*dT*dT*dT*dT*dG*dT*dT*dT*dT*eT*eA*eA*eA*eA) [compound 407951]”: 0%; for “407597 (antisense eT*eG*eT*eT*eG*dA*d[5mC]*dA*dT*dT*d[5mC]*d[5mC]*d[5mC]*d[5mC]*dA*eT*eG*eG*eG*eA) [compound 407597]”: 39%. On to “407962 (antisense eT*eT*eG*eG*eA*dA*dG*d[5mC]*dA*dG*d[5mC]*d[5mC]*d[5mC]*dA*d[5mC]*eG*eG*e[5mC]*eT*eG) [compound 407962]”, for which the “% Inhibition” value amounted to 41%. Still for that read-out and setting: the value for “407611 (antisense eT*e[5mC]*eT*e[5mC]*eA*d[5mC]*dA*dG*dT*dT*d[5mC]*d[5mC]*dG*dG*d[5mC]*e[5mC]*e[5mC]*eT*e[5mC]*eG) [compound 407611]” was 82%; that for “407907 (antisense eA*eA*eT*eG*eA*dG*dA*dA*dG*d[5mC]*dG*d[5mC]*dA*d[5mC]*dG*eA*eA*eG*eG*e[5mC]) [compound 407907]” was 35%. “407921 (antisense e[5mC]*e[5mC]*eA*e[5mC]*eA*dG*dG*d[5mC]*d[5mC]*dA*dG*dG*dG*d[5mC]*dT*eG*e[5mC]*eT*eG*eG) [compound 407921]”: the “% Inhibition” value came to 65%.

The series is the same for the next values; noted with them: gapmers targeted to nucleobases 4868 to 4899 of SEQ ID NO: 1, Table 8.
For “422219 (antisense e[5mC]*e[5mC]*eG*dA*dG*dT*dT*d[5mC]*dT*dG*d[5mC]*dA*dG*dG*dA*dG*d[5mC]*eG*eG*e[5mC]) [compound 422219]”, the “% Inhibition of human Factor 7 mRNA levels” value came to 65%.

Staying with this series, now noted: lipofectin, 50 nM antisense oligonucleotide, approximately 24 hours, Factor 7 mRNA by real-time RT-PCR (RTS 2927), relative to untreated control.
Take “416440 (antisense eG*eG*eA*e[5mC]*eT*dG*dG*dA*dG*d[5mC]*dT*dG*dG*dT*d[5mC]*e[5mC]*eT*eT*eG*e[5mC]) [compound 416440]”: the “% Inhibition” value is recorded as 44%. Same read-out and setting: the same measure for “416464 (antisense eA*eA*e[5mC]*eA*eT*dG*dT*dA*d[5mC]*dT*d[5mC]*d[5mC]*dG*dT*dG*eA*eT*eA*eT*eT) [compound 416464]”: 53%. The same measure, in the same setting: the value for “416451 (antisense eG*e[5mC]*e[5mC]*eA*eT*dG*dG*dA*d[5mC]*dA*d[5mC]*dT*d[5mC]*d[5mC]*d[5mC]*e[5mC]*eT*eT*eT*eG) [compound 416451]” was 75%; that for “416504 (antisense eT*e[5mC]*eA*eG*eA*dA*dA*dA*dG*d[5mC]*dT*d[5mC]*dT*d[5mC]*dA*eA*eG*eA*eA*e[5mC]) [compound 416504]” was 0%. Consider “416465 (antisense e[5mC]*eA*e[5mC]*eT*eG*dT*d[5mC]*d[5mC]*d[5mC]*d[5mC]*d[5mC]*dT*dT*dG*d[5mC]*eA*eG*eG*eA*eG) [compound 416465]”, for which the “% Inhibition” value stood at 51%.

Turning to “416439 (antisense eG*eT*e[5mC]*e[5mC]*eT*dT*dG*d[5mC]*dA*dG*dG*dA*dG*d[5mC]*d[5mC]*e[5mC]*e[5mC]*e[5mC]*eA*eT) [compound 416439]”, the “% Inhibition” value is given as 56%.

The same series, now with this note: oligonucleotides targeted to nucleobases 11830 to 11869 of SEQ ID NO: 1 (Table 9).
On to “422164 (antisense eG*eA*eG*dA*d[5mC]*dA*dA*dT*dG*dG*dT*d[5mC]*dA*dG*dG*dG*d[5mC]*eT*eG*eG) [compound 422164]”, for which the “% Inhibition (human Factor 7 mRNA levels)” value is given as 64%.

For the substance “422101 (antisense eT*eG*eA*eG*eG*dA*dG*dA*d[5mC]*dA*dA*dT*dG*dG*dT*e[5mC]*eA*eG*eG*eG) [compound 422101]”, the “% Inhibition (human Factor 7 mRNA levels)” value is on record as 42%. Regarding “422103 (antisense eG*e[5mC]*eT*eG*eA*dG*dG*dA*dG*dA*d[5mC]*dA*dA*dT*dG*eG*eT*e[5mC]*eA*eG) [compound 422103]”, the “% Inhibition (human Factor 7 mRNA levels)” value came to 38%.

The term % Inhibition denotes the drop in the measured response relative to a control, in per cent. Read a high % Inhibition as strong suppression.
